Experimental data: patent US20240368121A1, “ESTROGEN RECEPTOR DEGRADERS, PHARMACEUTICAL COMPOSITIONS THEREOF, AND THEIR THERAPEUTIC APPLICATIONS” (BioTheryX, Inc., priority 2021, published 2024)

Columns and labels:
Type in all cases: cell-based
ERα = molecular target: T1, ERα (Homo sapiens, UniProt P03372); experiment: Protein degradation assay: ERα in MCF-7 cells via western blot; settings: 6 h; for ERα Protein Degradation 1 nM: 1 nM compound; for ERα Protein Degradation 10 nM: 10 nM compound; for ERα Protein Degradation 100 nM: 100 nM compound
T1 construct: degrading an ERα in MCF-7 cells via a western blot; endogenous in cells; host or cells: MCF-7
T1 sequence (P03372 1-595): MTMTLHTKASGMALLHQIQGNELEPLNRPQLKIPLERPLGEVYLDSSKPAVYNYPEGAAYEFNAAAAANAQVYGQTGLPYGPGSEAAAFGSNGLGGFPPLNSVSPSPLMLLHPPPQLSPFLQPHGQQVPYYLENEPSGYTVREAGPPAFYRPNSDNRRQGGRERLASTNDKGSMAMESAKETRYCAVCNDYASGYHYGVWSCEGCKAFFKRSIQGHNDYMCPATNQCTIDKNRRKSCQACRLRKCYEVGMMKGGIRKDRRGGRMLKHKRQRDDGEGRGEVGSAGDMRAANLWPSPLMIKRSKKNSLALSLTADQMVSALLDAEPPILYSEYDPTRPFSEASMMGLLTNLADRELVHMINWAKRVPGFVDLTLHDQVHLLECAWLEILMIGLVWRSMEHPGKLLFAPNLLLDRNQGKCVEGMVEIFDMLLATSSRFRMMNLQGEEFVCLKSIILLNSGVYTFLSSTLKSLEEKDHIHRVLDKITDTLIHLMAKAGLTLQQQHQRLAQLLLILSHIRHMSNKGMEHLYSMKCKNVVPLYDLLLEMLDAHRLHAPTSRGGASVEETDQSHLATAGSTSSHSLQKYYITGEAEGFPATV
Protocol: A compound provided herein was assessed for its activity in degrading an ERα in MCF-7 cells via a western blot. The MCF7 cells were cultured at 37° C. in a humidified 5% C02 environment in MEM supplemented with 10% FBS with insulin. The cells were seeded in 12-well plates at a density of 300,000 cells per well in maintenance media. Cells were treated with the compound at predetermined concentrations (e.g., 1 nM, 10 nM, 100 nM, and 1 μM) for 6 h. The cells were then washed in PBS and the whole cells were lysed in a cell lysis buffer and incubated for 15 minutes on ice. Cell debris was removed by high-speed centrifugation and the cleared whole cell lysates were prepared for further analysis by a western blot. The whole cell protein extracts were separated on SDS-polyacrylamide gels, transferred to nitrocellulose membranes, and probed with primary antibodies, including anti-ERα antibody and GAPDH antibody for loading control. The membranes were subsequently washed and probed with secondary antibodies for chemiluminescence, followed by imaging on a BIORAD CHEMIDOC Imaging System. The results are summarized in Table 2, where “A” represents a percentage degradation value of no less than 50%; “B” represents a percentage degradation value of less than 50% and no less than 25%; “C” represents a percentage degradation value of less than 25% and no less than 10%; and “D” represents a percentage degradation value of less than 10%.

MCF7 cells = experiment: Cell viability assay ([…]-GLO, 6-day treatment); settings: Homo sapiens, MCF7, 144 h; MCF-7 cells, 6 days, CTG; read-out: Inhibition of Cancerous Cells IC50 MCF-7
Protocol: (§1) A compound provided herein was evaluated for its anticancer activity in MCF7 and T47D cells. MCF7 and T47D cells were cultured at 37° C. in a humidified 5% C02 environment in MEM or RPMI, supplemented with 10% FBS with insulin, respectively. The cells were plated in 384-well microplates at a density of 1,000 cells per well in their respective maintenance media. The cells were treated with the compound by a 10-point dose response curve for 6 days, during which, the medium and compound were refreshed once. After the 6-day treatment, the cell viability was assessed using […]-GLO (CTG) reagent. Luminescence was measured with a microplate reader.

T47D cells = experiment: Cell viability assay ([…]-GLO, 6-day treatment); settings: Homo sapiens, 144 h, 6 days, CTG, read-out: Inhibition of Cancerous Cells IC50 T47D
Protocol: as §1

| Structure (SMILES) | ERα Protein Degradation 1 nM (ERα) | ERα Protein Degradation 10 nM (ERα) | ERα Protein Degradation 100 nM (ERα) | IC50 (MCF7 cells) | IC50 (T47D cells) |
| --- | --- | --- | --- | --- | --- |
| Cc1c(-c2ccc(O)cc2)n(Cc2ccc(OCCCCN3CCN(C(=O)COc4cccc5c4CN(C4CCC(=O)NC4=O)C5=O)CC3)cc2)c2ccc(O)cc12 (stereo not shown) [Compound E1, 3-(4-(2-(4-(4-(4-((5-hydroxy-2-(4-hydroxyphenyl)-3-methyl-1H-indol-1-yl)-methyl)phenoxy)butyl)piperazin-1-yl)-2-oxoethoxy)-1-oxoisoindolin-2-yl)piperidine-2,6-dione] | C (a percentage degradation value of less than 25% and no less than 10%) | B (a percentage degradation value of less than 50% and no less than 25%) | B (a percentage degradation value of less than 50% and no less than 25%) | 19 nM | 0.84 nM |
| Cc1c(-c2ccc(O)cc2)n(Cc2ccc(OCCCCN3CCN(C(=O)COc4ccc(N5CCC(=O)NC5=O)cc4)CC3)cc2)c2ccc(O)cc12 [Compound E27, 1-(4-(2-(4-(4-(4-((5-hydroxy-2-(4-hydroxyphenyl)-3-methyl-1H-indol-1-yl)-methyl)phenoxy)butyl)piperazin-1-yl)-2-oxoethoxy)phenyl)dihydropyrimidine-2,4(1H,3H)-dione] | D (a percentage degradation value of less than 10%) | D (a percentage degradation value of less than 10%) | D (a percentage degradation value of less than 10%) | 5.6 nM | 3.2 nM |
| O=C1CCC(N2Cc3cc(N4CCN(CC5CCN(c6ccc([C@@H]7c8ccc(O)cc8CC[C@@H]7c7ccccc7)cc6)CC5)CC4)ccc3C2=O)C(=O)N1 (stereo partly drawn) [Compound A14, 3-(5-(4-((1-(4-((1R,2S)-6-Hydroxy-2-phenyl-1,2,3,4-tetrahydronaphthalen-1-yl)-phenyl)piperidin-4-yl)methyl)piperazin-1-yl)-1-oxoisoindolin-2-yl)piperidine-2,6-dione] | A (a percentage degradation value of no less than 50%) | A (a percentage degradation value of no less than 50%) | A (a percentage degradation value of no less than 50%) | 1.1 nM | 0.86 nM |
| Cc1c(-c2ccc(O)cc2)n(Cc2ccc(OCCCCN3CCN(C(=O)COc4ccc(C5CCC(=O)NC5=O)cc4)CC3)cc2)c2ccc(O)cc12 (stereo not shown) [Compound E24, 3-(4-(2-(4-(4-(4-((5-hydroxy-2-(4-hydroxyphenyl)-3-methyl-1H-indol-1-yl)-methyl)phenoxy)butyl)piperazin-1-yl)-2-oxoethoxy)phenyl)piperidine-2,6-dione] | D (a percentage degradation value of less than 10%) | D (a percentage degradation value of less than 10%) | D (a percentage degradation value of less than 10%) | 1.7 nM |  |
| CC1(Cc2ccc(OCCCCN3CCN(C(=O)COc4ccc5c(c4)CN(C4CCC(=O)NC4=O)C5=O)CC3)cc2)C(c2ccc(O)cc2)=Nc2ccc(O)cc21 (stereo not shown) [Compound D3, 3-(5-(2-(4-(4-(4-((5-Hydroxy-2-(4-hydroxyphenyl)-3-methyl-3H-indol-3-yl)-methyl)phenoxy)butyl)piperazin-1-yl)-2-oxoethoxy)-1-oxoisoindolin-2-yl)piperidine-2,6-dione] | D (a percentage degradation value of less than 10%) | D (a percentage degradation value of less than 10%) | D (a percentage degradation value of less than 10%) | 569 nM |  |
| O=C1CCC(N2Cc3sc(C4CCN(CC5CCN(c6ccc([C@@H]7c8ccc(O)cc8CC[C@@H]7c7ccccc7)cc6)CC5)CC4)cc3C2=O)C(=O)N1 (stereo partly drawn) [Compound A10, 3-(2-(1-((1-(4-((1R,2S)-6-hydroxy-2-phenyl-1,2,3,4-tetrahydronaphthalen-1-yl)phenyl)piperidin-4-yl)methyl)piperidin-4-yl)-4-oxo-4,6-dihydro-5H-thieno[2,3-c]pyrrol-5-yl)piperidine-2,6-dione] | D (a percentage degradation value of less than 10%) | D (a percentage degradation value of less than 10%) | D (a percentage degradation value of less than 10%) | 0.82 nM |  |
| O=C1CCC(N2Cc3c(csc3COc3ccc(CNCCCCCOc4ccc([C@@H]5c6ccc(O)cc6CC[C@@H]5c5ccccc5)cc4)cc3)C2=O)C(=O)N1 (stereo in doubt) [Compound A17, 3-(1-((4-(((5-(4-((1R,2S)-6-Hydroxy-2-phenyl-1,2,3,4-tetrahydronaphthalen-1-yl)phenoxy)pentyl)amino)methyl)phenoxy)methyl)-4-oxo-4H-thieno[3,4-c]pyrrol-5(6H)-yl)piperidine-2,6-dione] | B (a percentage degradation value of less than 50% and no less than 25%) | C (a percentage degradation value of less than 25% and no less than 10%) | D (a percentage degradation value of less than 10%) | 1160 nM |  |
| Cc1c(-c2ccc(O)cc2)n(Cc2ccc(OCCCCN3CCN(C(=O)COc4cccc(C5CCC(=O)NC5=O)c4)CC3)cc2)c2ccc(O)cc12 (stereo not shown) [Compound E25, 3-(3-(2-(4-(4-(4-((5-Hydroxy-2-(4-hydroxyphenyl)-3-methyl-1H-indol-1-yl)-methyl)phenoxy)butyl)piperazin-1-yl)-2-oxoethoxy)phenyl)piperidine-2,6-dione] | D (a percentage degradation value of less than 10%) | D (a percentage degradation value of less than 10%) | D (a percentage degradation value of less than 10%) | 5 nM |  |
| Cn1nc(C2CCC(=O)NC2=O)c2cccc(OCC(=O)N3CCN(CCCCOc4ccc(CC5(C)C(c6ccc(O)cc6)=Nc6ccc(O)cc65)cc4)CC3)c21 (stereo not shown) [Compound D4, 3-(7-(2-(4-(4-(4-((5-hydroxy-2-(4-hydroxyphenyl)-3-methyl-3H-indol-3-yl)-methyl)phenoxy)butyl)piperazin-1-yl)-2-oxoethoxy)-1-methyl-1H-indazol-3-yl)piperidine-2,6-dione] | D (a percentage degradation value of less than 10%) | D (a percentage degradation value of less than 10%) | C (a percentage degradation value of less than 25% and no less than 10%) |  | 84 nM |
| O=C1CCN(c2ccc(OCC(=O)N3CCN(CCCCOc4ccc([C@H]5c6ccc(O)cc6CC[C@H]5c5ccccc5)cc4)CC3)cc2)C(=O)N1 [Compound B45, 1-(4-(2-(4-(4-(4-((1S,2R)-6-Hydroxy-2-phenyl-1,2,3,4-tetrahydronaphthalen-1-yl)phenoxy)butyl)piperazin-1-yl)-2-oxoethoxy)phenyl)dihydropyrimidine-2,4(1H,3H)-dione] | C (a percentage degradation value of less than 25% and no less than 10%) | C (a percentage degradation value of less than 25% and no less than 10%) | C (a percentage degradation value of less than 25% and no less than 10%) | 88 nM |  |
